Source: patent US10738062B2, “Chromane-substituted tetracyclic compounds and uses thereof for the treatment of viral diseases” (Merck Sharp & Dohme Corp., priority 2016, dated 2020)
Like-named read-outs stand apart in the source and are kept apart here.

Assays:
Set-up in all cases: species or system Hepatitis C virus
Settings in all cases: replicon RNA by real time PCR, day 3
HCV replicon 1A = assay: Cell-based HCV replicon assay (Replicon Assay A), replicon 1A
Method: (§1) To measure cell-based anti-HCV activity of compounds of the present invention, two complimentary assays were employed using various replicons. In the first assay (“Replicon Assay A”), replicon cells were seeded at 2000 cells/well in 384-well 384-well flat bottom tissue culture treated clear bottom plate (Corning 3707) in the presence of the test compound. Various concentrations of test compound, typically in 10 serial dilutions, were added to the assay mixture, with the starting concentration ranging from 333.3 nM to 1.667 nM. The final concentration of DMSO was 0.5%. Fetal bovine serum was 5%, in the assay media. Cells were harvested on day 3 by removing media and washing the cells with a suitable wash buffer. The cells were lysed with the addition of 1× Qiagen lysis buffer (Cat #1062731). The replicon RNA level was measured using real time PCR (TaqMan® EZ RT-PCR, Applied Biosystems 403028) with the following primers and probes: […]
(§2) Cyclophilin RNA was used as endogenous control and was amplified in the same reaction as NS5B (multiplex PCR). The real-time RT-PCR reactions were run on ABI PRISM 7900HT Sequence Detection System using the following program: 50° C. for 2 minutes, 60° C. for 30 minutes, 95° C. for 5 minutes, 40 cycles of 94° C. for 20 sec, 55° C. for 1 minutes.
(§3) The amount of HCV replicon RNA per cell was quantified using a linear regression curve for a known nanogram (ng) amount of HCV replicon total RNA. This was established by plotting the Cycle Threshold values (Ct) from the Neo probe and primer set versus the log (ng) for each HCV replicon total RNA standard. The amount of HCV RNA for each replicon sample was calculated by taking the sample's Ct value, minus the line intercept, divided by the slope of the line. Similarly, the amount of Cyclophilin mRNA per cell was also quantified using a linear regression curve for a known nanogram (ng) amount of HCV replicon total RNA. Again, this was established by plotting the Cycle Threshold values (Ct) from the Cyclophilin probe and primer set versus the log (ng) for each HCV replicon total RNA standard.
(§4) The real-time RT-PCR reactions were run on ABI PRISM 7900HT or Viia7 Sequence Detection System using the following program: 48° C. for 30 minutes, 95° C. for 10 minutes, 40 cycles of 95° C. for 15 sec, 60° C. for 1 minutes. The 50% effective concentration (EC50) was the drug concentration necessary to achieve an increase in the cycle threshold (CT) of 1 over the projected baseline CT.
(§5) Data was obtained for various compounds of the present invention using the methods described in the Example above, and is presented in the table immediately below. EC50 data for replicons 1A, 1AY93H and 2B were obtained using Replicon Assay A and EC50 data for replicon 1B was obtained using Replicon Assay B.

HCV replicon 2B = assay: Cell-based HCV replicon assay (Replicon Assay A), replicon 2B
Method: as §1, §2, §3, §4, §5

HCV replicon 1A Y93H = assay: Cell-based HCV replicon assay (Replicon Assay A), replicon 1AY93H
Method: as §1, §2, §3, §4, §5

[1] = read-out: EC50 replicon 2B, Replicon Assay A
[2] = read-out: EC50 replicon 1A Y93H, Replicon Assay A

SMILES | EC50 (HCV replicon 1A) | EC50 (HCV replicon 2B; [1]) | EC50 (HCV replicon 1A Y93H; [2]) | EC50 (HCV replicon 1A; Hepatitis C virus, 72 h) | EC50 (HCV replicon 2B; Hepatitis C virus, 72 h, read-out: EC50 replicon 2B, Replicon Assay A) | EC50 (HCV replicon 1A Y93H; Hepatitis C virus, 72 h, read-out: EC50 replicon 1A Y93H, Replicon Assay A)
COC(=O)N[C@H](C(=O)N1CCC[C@H]1c1ncc(-c2cc(F)c3c(c2)OC(c2ccc4c(c2)CCCO4)n2c-3cc3cc(-c4cnc([C@@H]5CCCN5C(=O)[C@@H](NC(=O)OC)C5CCOCC5)[nH]4)ccc32)[nH]1)C(C)C (single isomer, unassigned) [Compound 36] | 0.0021 nM | 0.416 nM | 0.426 nM | – | – | –
COC(=O)NC(C(=O)N1CCC[C@H]1c1ncc(-c2ccc3c(c2)cc2n3C(c3ccc4c(c3)CCC(C)O4)Oc3cc(-c4cnc([C@@H]5CCCN5C(=O)[C@@H](NC(=O)OC)C(C)C)[nH]4)cc(F)c3-2)[nH]1)C1C[C@@H](C)O[C@@H](C)C1 (single isomer, unassigned) [Compound 55] | – | 1.26 nM | 1.86 nM | 0.0019 nM | – | –
COC(=O)NC(C(=O)N1[C@@H]2C[C@@H]2C[C@H]1c1ncc(-c2ccc3c(c2)cc2n3C(c3ccc4c(c3)OCCC4)Oc3cc(-c4cnc([C@@H]5CCCN5C(=O)[C@@H](NC(=O)OC)C(C)C)[nH]4)cc(F)c3-2)[nH]1)C1CCO[C@H](C)C1 (single isomer, unassigned) [Compound 81] | – | 0.27 nM | 0.188 nM | 0.002 nM | – | –
COC(=O)N[C@H](C(=O)N1CCC[C@H]1c1ncc(-c2cc(F)c3c(c2)OC(c2ccc4c(c2)OCCC4C)n2c-3cc3cc(-c4cnc([C@@H]5CCCN5C(=O)[C@@H](NC(=O)OC)C(C)C)[nH]4)ccc32)[nH]1)C(C)C (single isomer, unassigned) [Compound 9] | 0.0026 nM | 0.772 nM | 0.949 nM | – | – | –
COC(=O)NC(C(=O)N1CCC[C@H]1c1ncc(-c2ccc3c(c2)cc2n3C(c3ccc4c(c3)CCCO4)Oc3cc(-c4cnc([C@@H]5CCCN5C(=O)[C@@H](NC(=O)OC)C(C)C)[nH]4)cc(F)c3-2)[nH]1)C1C[C@@H](C)O[C@@H](C)C1 (single isomer, unassigned) [Compound 73] | – | 0.791 nM | 1.36 nM | 0.0031 nM | – | –
COC(=O)N[C@H](C(=O)N1CCC[C@H]1c1ncc(-c2cc(F)c3c(c2)OC(c2ccc4c(c2)OC(C)CC4)n2c-3cc3cc(-c4cnc([C@@H]5CCCN5C(=O)[C@@H](NC(=O)OC)C(C)C)[nH]4)ccc32)[nH]1)C(C)C (single isomer, unassigned) [Compound 11] | – | 1.39 nM | 5.7 nM | 0.0025 nM | – | –
COC(=O)N[C@H](C(=O)N1CCC[C@H]1c1ncc(-c2cc(F)c3c(c2)OC(c2ccc4c(c2)CC2CC2(C)O4)n2c-3cc3cc(-c4cnc([C@@H]5CCCN5C(=O)[C@@H](NC(=O)OC)C(C)C)[nH]4)ccc32)[nH]1)C(C)C (single isomer, unassigned) [Compound 26] | 0.0028 nM | 1.41 nM | 0.344 nM | – | – | –
COC(=O)N[C@H](C(=O)N1CCC[C@H]1c1ncc(-c2ccc3c(c2)OC(c2ccc4c(c2)OCCC4)n2c-3cc3cc(-c4cnc([C@@H]5C[C@H]6C[C@H]6N5C(=O)[C@@H](NC(=O)OC)C(C)C)[nH]4)ccc32)[nH]1)C(C)C (single isomer, unassigned) [Compound 49] | – | 0.817 nM | 2.44 nM | 0.0016 nM | – | –
COC(=O)NC(C(=O)N1CCC[C@H]1c1ncc(-c2ccc3c(c2)cc2n3C(c3ccc4c(c3)OC(C)CC4)Oc3cc(-c4cnc([C@@H]5CCCN5C(=O)[C@@H](NC(=O)OC)C(C)C)[nH]4)cc(F)c3-2)[nH]1)C1CCOC(C)(C)C1 (single isomer, unassigned) [Compound 61] | – | 0.215 nM | 1.49 nM | 0.0023 nM | – | –
COC(=O)NC(C(=O)N1CCC[C@H]1c1ncc(-c2ccc3c(c2)cc2n3C(c3ccc4c(c3)CCCO4)Oc3cc(-c4cnc([C@@H]5CCCN5C(=O)[C@@H](NC(=O)OC)C(C)C)[nH]4)cc(C)c3-2)[nH]1)C1C[C@@H](C)O[C@@H](C)C1 (single isomer, unassigned) [Compound 83] | – | – | – | 0.0039 nM | 0.16 nM | 0.594 nM
COC(=O)NC(C(=O)N1CCC[C@H]1c1ncc(-c2ccc3c(c2)cc2n3C(c3ccc4c(c3)CCC(C)O4)Oc3cc(-c4cnc([C@@H]5CCCN5C(=O)[C@@H](NC(=O)OC)C(C)C)[nH]4)cc(F)c3-2)[nH]1)C1C[C@@H](C)O[C@@H](C)C1 (single isomer, unassigned) [Compound 56] | 0.0024 nM | 0.288 nM | 0.114 nM | – | – | –
COC(=O)N[C@H](C(=O)N1CCC[C@H]1c1ncc(-c2cc(F)c3c(c2)OC(c2ccc4c(c2)CCCO4)n2c-3cc3cc(-c4cnc([C@@H]5CCCN5C(=O)[C@@H](NC(=O)OC)C(C)C)[nH]4)ccc32)[nH]1)C(C)C (single isomer, unassigned) [Compound 23] | – | 5.17 nM | 2.62 nM | 0.002 nM | – | –
COC(=O)NC(C(=O)N1CCC[C@H]1c1ncc(-c2ccc3c(c2)cc2n3C(c3ccc4c(c3)OC(C)CC4)Oc3cc(-c4cnc([C@@H]5CCCN5C(=O)[C@@H](NC(=O)OC)C(C)C)[nH]4)cc(F)c3-2)[nH]1)C1CCOC(C)(C)C1 (single isomer, unassigned) [Compound 62] | 0.0019 nM | 0.253 nM | 0.516 nM | – | – | –
COC(=O)N[C@H](C(=O)N1CCC[C@H]1c1ncc(-c2cc(F)c3c(c2)OC(c2ccc4c(c2)OC(C)CC4)n2c-3cc3cc(-c4cnc([C@@H]5CCCN5C(=O)[C@@H](NC(=O)OC)C(C)C)[nH]4)ccc32)[nH]1)C(C)C (single isomer, unassigned) [Compound 12] | 0.0016 nM | 1.9 nM | 6.73 nM | – | – | –
COC(=O)NC(C(=O)N1CCC[C@H]1c1ncc(-c2ccc3c(c2)cc2n3C(c3ccc4c(c3)CCCO4)Oc3cc(-c4cnc([C@@H]5CCCN5C(=O)[C@@H](NC(=O)OC)C(C)C)[nH]4)cc(C)c3-2)[nH]1)C1C[C@@H](C)O[C@@H](C)C1 (single isomer, unassigned) [Compound 84] | 0.002 nM | 0.193 nM | 0.674 nM | – | – | –
COC(=O)N[C@H](C(=O)N1CCC[C@H]1c1ncc(-c2cc(F)c3c(c2)OC(c2ccc4c(c2)OCCC42CC2)n2c-3cc3cc(-c4cnc([C@@H]5CCCN5C(=O)[C@@H](NC(=O)OC)C(C)C)[nH]4)ccc32)[nH]1)C(C)C (single isomer, unassigned) [Compound 15] | – | 1.31 nM | 2.15 nM | 0.0012 nM | – | –
COC(=O)N[C@H](C(=O)N1CCC[C@H]1c1ncc(-c2cc(F)c3c(c2)OC(c2ccc4c(c2)CC2CC2(C)O4)n2c-3cc3cc(-c4cnc([C@@H]5CCCN5C(=O)[C@@H](NC(=O)OC)C(C)C)[nH]4)ccc32)[nH]1)C(C)C (single isomer, unassigned) [Compound 25] | – | 3.83 nM | 4.67 nM | 0.0037 nM | – | –
COC(=O)N[C@H](C(=O)N1CCC[C@H]1c1ncc(-c2cc(F)c3c(c2)OC(c2ccc4c(c2)OCCC42CC2)n2c-3cc3cc(-c4cnc([C@@H]5CCCN5C(=O)[C@@H](NC(=O)OC)C(C)C)[nH]4)ccc32)[nH]1)C(C)C (single isomer, unassigned) [Compound 16] | 0.002 nM | 0.038 nM | 0.031 nM | – | – | –
COC(=O)N[C@H](C(=O)N1CCC[C@H]1c1ncc(-c2cc(F)c3c(c2)OC(c2ccc4c(c2)OCCC4C)n2c-3cc3cc(-c4cnc([C@@H]5CCCN5C(=O)[C@@H](NC(=O)OC)C(C)C)[nH]4)ccc32)[nH]1)C(C)C (single isomer, unassigned) [Compound 7] | – | 1.59 nM | 2.18 nM | 0.0017 nM | – | –
